Measurements as given in patent EP3345917A1, “ANTIPROTOZOAL COMPOUNDS” (Bacoba AG, priority 2017, dated 2018).
Where “and” joins values, the source holds several entries; their conditions need not be identical. Equal values may be shown once. Entries after “also recorded” stand apart in the source; their conditions may differ. Read-outs that look alike come from different tables or passages of the source. One block for each molecule: values may come before it. Non-standard residues stand in square brackets, D forms with d. Residues, ends and D or L forms follow the SMILES beside them. *: point of attachment. Hexenoyl(2E,4S-Me) = CC[C@H](C)/C=C/C(=O)*; Leu(3R-OH) = CC(C)[C@@H](O)[C@H](N)C(=O)O; NH(1-CH2NMe2-cBu) = CN(C)CC1(N*)CCC1; Gly(octyl) = CCCCCCCC[C@H](N)C(=O)O; Benzoyl(4-F) = O=C(c1ccc(F)cc1)*; hCha = N[C@@H](CCC1CCCCC1)C(=O)O; X17 = C[C@@H](CN1CCOCC1)N*; Aib = CC(C)(N)C(=O)O; βAla = NCCC(=O)O

Legend:
[1] = test system: Plasmodium falciparum K1 strain; experiment: microbe, parasite or virus in culture
Experimental: (§1) Testing of compounds against Plasmodium falciparum (K1 strain), Trypanosoma brucei rhodesiense (STIB 900 strain), Trypanosoma cruzi trypomastigote forms (Tulahuen strain), and Leishmania donovani (strain MHOM/ET/67/L82) was performed in 96 well plates at concentrations in serial dilutions. Tests were done in triplicate. IC50 values against the parasites as well as cytotoxic effects against rat myoblast (L6-cells) were determined by serial dilution and repeated twice.
Determination of activity against Plasmodium falciparum K1 strain was done using a modified version of the ^3H-hypoxanthine incorporation assay by Trager and Jensen (Trager W. and Jensen, J.B. Science 1976; 193:673-675). After incubation the plates were harvested using a Betaplate cell harvester (Wallac, Switzerland) onto glass-fiber filters and washed. The dried filters were inserted into plastic foils with 10 ml scintillation fluid. The radioactivity was counted with a Betaplate liquid scintillation counter (Wallac, Switzerland) as counts per minute per well at each drug concentration and compared to the untreated controls. […] IC50 values were calculated by linear interpolation. All assays were run in duplicate and repeated two times.

[2] = test system: intracellular Leishmania donovani (L.don. InMac); experiment: Intracellular Leishmania donovani assay (L.don. InMac); format: cell-based; details: In vitro inhibition
Excerpt: (§2) Tests were done in triplicate.

[3] = Cytotoxicity assay on L6-cells (Alamar Blue); details: rat, Cytotox L6, Cytotoxicity against rat myoblast cells (L6)
Experimental: (§3) After 68 h of incubation under humidified 5% CO2 atmosphere, 10 µl of the Alamar blue marker was added to all wells. The plates were incubated for an additional 2 h. […] The IC50S were calculated by Softmax Pro software (Molecular Devices Cooperation, Sunnyvale, CA). […] Cytotoxicity was measured against rat myoblast cells (Cytotox L6).

rat myoblast (L6-cells) [4] = experiment: Cytotoxicity assay on L6-cells (Alamar Blue); details: read-out: Cytotox L6; Cytotoxicity against rat myoblast cells (L6)
Experimental: as §3

[5] = test system: Trypanosoma brucei rhodesiense (STIB 900 strain); experiment: Alamar Blue assay against Trypanosoma brucei rhodesiense grown in axenic medium; format: cell-based; details: In vitro inhibition, read-out: T.b.rhod.
Outline: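 Alamar Blue-based IC50 determination, in triplicate, on axenically grown STIB 900 trypanosomes. Melarsoprol included as reference.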

[6] = test system: Trypanosoma cruzi trypomastigote forms (Tulahuen strain); experiment: Intracellular Trypanosoma cruzi assay in L6-cells, beta-galactosidase/CPRG readout; format: cell-based; details: In vitro inhibition, read-out: T.cruzi.
Outline: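 Readout was β-galactosidase cleavage of CPRG, read photometrically at 540 nm after 2–6 h colour development, giving IC50 values. Parasites: LacZ-expressing Tulahuen C2C4 strain grown in rat L6 myoblasts; run in triplicate.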

[7] = test system: Axenically grown Leishmania donovani amastigotes (strain MHOM/ET/67/L82); experiment: Axenic Leishmania donovani amastigote resazurin assay; format: cell-based; details: In vitro inhibition, read-out: L.don. ax
Outline: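 IC50 values derive from resazurin fluorescence (ex 536 nm, em 588 nm), expressed relative to the negative control, after 2-4 hours of plate development. Axenic amastigotes of strain MHOM/ET/67/L82 were used; each test run in triplicate.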

Plasmodium falciparum = experiment: 3H-hypoxanthine incorporation assay against Plasmodium falciparum; format: cell-based; details: In vitro inhibition, read-out: P.falc NF5
Experimental: as §2
IC50 values were calculated by linear interpolation.

[8] = test system: Trypanosoma brucei brucei; experiment: Acute mouse sleeping sickness model (in vivo antitrypanosomal activity); on Parasitaemia day 7: key: 0 = no parasite in 20 fields of view; ((+)) = 1 Trypanosome in 20 fields of view; (+) = 1 Trypanosome per field of view; + = 2 - 5 Trypanosomes per field of view; ++ = 6 - 20 Trypanosomes per field of view, the mouse is killed; +++ = > 20 Trypanosomes per field of view, the mouse is killed
Experimental: This model mimics the first stage of the human African trypanosomiasis. Adult female NMRI mice were purchased from Janvier (St. Berthevin, France). They weighed between 20 and 25 g at the beginning of the study and were kept under standard conditions at 22 °C and 60-70% humidity in macro Ion type III cages with food pellets and water ad libitum. The samples were first dissolved in 100% DMSO, followed by addition of distilled H2O to a final DMSO concentration of 10%. For determination of the in vivo antitrypanosomal activity, mice were infected intraperitoneally with 1 x 10^4 STIB900 bloodstream forms. […] A control group of four mice was infected, but remained untreated. The determination of the parasitaemia was done on days 7, 10, 14, 17, 21, 24, 28, and 31 post infection. To do this 6 µL of tail blood were diluted in 24 µL sodium citrate (3.2%), whereby the first µL was discarded to obtain circulating blood. Five µL of this mixture were transferred to a glass slide and covered with an 18 x 18 mm cover slide. The sample was examined under a light microscope (200-fold magnification) and parasites were counted in 3 of the 16 squares of the grid.

[9] = Cytotoxicity assay on L6-cells (Alamar Blue); details: rat, L6 rat myoblast cells
Experimental: as §1

rat myoblast (L6-cells) [10] = experiment: Cytotoxicity assay on L6-cells (Alamar Blue); details: Rattus norvegicus, Myoblast, 70 h
Experimental: as §1

[11] = 3 mg/kg per injection, 2 per day, 2 treatment days, i.p., group of four mice
[12] = 3 mg/kg per injection, 2 per day, 2 treatment days, i.p., individual mice
[13] = 3 mg/kg twice a day for 2 days, intraperitoneal

IC50 ([1]; K1): 50 ± 10 nM
IC50 ([1]; K1, read-out: P.falc NF5): 6.25 nM
Compound: CCN(CC)CCCC(C)Nc1ccnc2cc(Cl)ccc12 (centres unmarked) [Chloroquine]

Compound: CCCCCCCC[C@H](NC(=O)[C@@H]1CCCN1C(=O)/C=C/[C@@H](C)CC)C(=O)N[C@H](C(=O)NC(C)(C)C(=O)N[C@@H](CC(C)C)C(=O)N[C@@H](CC(C)C)C(=O)NC(C)(C)C(=O)NC(C)(C)C(=O)NCCC(=O)N[C@@H](C)CN1CCOCC1)[C@H](O)C(C)C [Compound 5573, (2S)-N-[(1S,2R)-2-hydroxy-3-methyl-1-[(1-methyl-1-{[(1S)-3-methyl-1-{[(1S)-3-methyl-1-{[1-methyl-1-({1-methyl-1-[(2-{[(2S)-1-(morpholin-4-yl)propan-2-yl]carbamoyl}ethyl)carbamoyl]ethyl}carbamoyl)ethyl]carbamoyl}butyl]carbamoyl}butyl]carbamoyl}ethyl)carbamoyl]butyl]-2-{[(2S)-1-[(2E,4S)-4-methylhex-2-enoyl]pyrrolidin-2-yl]formamido}decanamide] ({Hexenoyl(2E,4S-Me)}-P[Gly(octyl)][Leu(3R-OH)][Aib]LL[Aib][Aib][βAla]-X17)
IC50 [2]: 20.4 nM
IC50 at 70 h [3]: 512 nM
IC50 (rat myoblast (L6-cells) [4]): 738 nM

Compound: CC(C)C[C@H](NC(=O)[C@H](CCC1CCCCC1)NC(=O)[C@@H]1CCCN1C(=O)c1ccc(F)cc1)C(=O)NC(C)(C)C(=O)N[C@@H](CC(C)C)C(=O)N[C@@H](CC(C)C)C(=O)NC(C)(C)C(=O)NC(C)(C)C(=O)NCCC(=O)NC1(CN(C)C)CCC1 [Compound 6027, (2S)-2-[(2S)-4-cyclohexyl-2-{[(2S)-1-(4-fluorobenzoyl)pyrrolidin-2-yl]formamido}butanamido]-N-(1-{[(1S)-1-{[(1S)-1-({1-[(1-{[2-({1-[(dimethylamino)methyl]cyclobutyl}carbamoyl)ethyl]carbamoyl}-1-methylethyl)carbamoyl]-1-methylethyl}carbamoyl)-3-methylbutyl]carbamoyl}-3-methylbutyl]carbamoyl}-1-methylethyl)-4-methylpentanamide] ({Benzoyl(4-F)}-P[hCha]L[Aib]LL[Aib][Aib][βAla]-{NH(1-CH2NMe2-cBu)})
IC50 [5]: 0.4 nM
IC50 [6]: 155 nM
IC50 [7]: 34.1 µM
IC50 [2]: 54.2 nM
IC50 (Plasmodium falciparum): 42.5 µM
Mean day of relapse [8, 11]: 17 days
Mean day of survival [8, 11]: 18 days
Day of relapse [8, 12]: 17 days
Parasitaemia day 7 [8, 12]: 0
Parasitaemia day 10 [8, 12]: 0
Parasitaemia day 14 [8, 12]: 0
Parasitaemia day 17 [8, 12]: ++ (++ = 6 - 20 Trypanosomes per field of view, the mouse is killed); also recorded: + (+ = 2 - 5 Trypanosomes per field of view)
Parasitaemia day 21 [8, 12]: ((+)) (((+)) = 1 Trypanosome in 20 fields of view)
Parasitaemia day 24 [8, 12]: ((+)) (((+)) = 1 Trypanosome in 20 fields of view)
Parasitaemia day 28 [8, 12]: (+) ((+) = 1 Trypanosome per field of view)
Parasitaemia day 31 [8, 12]: (+) ((+) = 1 Trypanosome per field of view)
Survival days [8, 12]: 17 days (2×) and 31 days and 5 days
parasitaemia by day 17 [8, 13]: all surviving animals showed parasitaemia
parasitaemia of the surviving animal at day 31 [8, 13]: low parasitaemia
animals sacrificed after parasitaemia relapse ([8]; 3 mg/kg twice a day for 2 days, intraperitoneal, after day 17): two
parasitaemia on day 7 ([8]; 3 mg/kg twice a day for 2 days, intraperitoneal, day 7 post infection): no observable parasitaemia
reduction of parasitaemia compared to untreated controls ([8]; 3 mg/kg twice a day for 2 days, intraperitoneal, four mice): significant reduction of parasitaemia
animals surviving until day 31 ([8]; 3 mg/kg twice a day for 2 days, intraperitoneal, group of four mice): one
animals surviving treatment ([8]; 3 mg/kg twice a day for 2 days, intraperitoneal, one death on day 5 for unspecified reasons): all animals survived treatment, except for one
IC50 at 70 h [3]: 1390 nM

Compound: COc1cc([C@@H]2c3cc4c(cc3[C@H](O)[C@H]3COC(=O)[C@H]23)OCO4)cc(OC)c1OC [Podophyllotoxin]
IC50 at 70 h [9]: 19.3 nM
IC50 (rat myoblast (L6-cells) [10]): 50 ± 10 nM
